Reference: patent US20240009191A1, “METHOD AND COMPOSITION FOR THE TREATMENT OF DISEASE” (DIMERIX BIOSCIENCE PTY LTD, priority 2019, published 2024)

Key:
AT1R and CXCR2 = biological target: T1, AT1R and CXCR2 (Homo sapiens, UniProt P25025+P30556); assay: IP1 accumulation, HEK293 cells transiently-transfected with AT1R and CXCR2; type: cell-based
T1 sequence (P30556 1-359): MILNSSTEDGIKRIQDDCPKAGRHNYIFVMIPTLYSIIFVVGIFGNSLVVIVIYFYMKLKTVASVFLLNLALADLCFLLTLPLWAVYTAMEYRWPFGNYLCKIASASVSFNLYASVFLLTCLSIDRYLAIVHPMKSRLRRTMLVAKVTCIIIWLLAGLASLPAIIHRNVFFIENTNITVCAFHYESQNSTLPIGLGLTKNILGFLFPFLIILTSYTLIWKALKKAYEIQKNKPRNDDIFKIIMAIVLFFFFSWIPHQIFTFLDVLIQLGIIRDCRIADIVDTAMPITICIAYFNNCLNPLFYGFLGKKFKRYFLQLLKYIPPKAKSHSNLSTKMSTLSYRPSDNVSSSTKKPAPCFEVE
T1 sequence (P25025 1-360): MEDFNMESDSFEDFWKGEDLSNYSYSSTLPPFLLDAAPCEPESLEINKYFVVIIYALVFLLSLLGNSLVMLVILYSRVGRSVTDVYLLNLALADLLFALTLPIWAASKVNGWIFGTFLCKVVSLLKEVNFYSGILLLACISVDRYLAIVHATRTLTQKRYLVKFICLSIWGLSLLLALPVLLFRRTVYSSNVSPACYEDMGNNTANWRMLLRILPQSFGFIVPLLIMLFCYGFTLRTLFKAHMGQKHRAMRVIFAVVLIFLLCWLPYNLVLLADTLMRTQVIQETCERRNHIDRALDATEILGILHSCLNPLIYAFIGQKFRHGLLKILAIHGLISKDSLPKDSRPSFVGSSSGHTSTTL
Method: Referring now to FIG. 2, Receptor activation of the phospholipase C pathway was detected through the measurement of D-myo-Inositol 1-Phosphate (IP1) by competitive immunoassay (IP-one—Gq Kit, Cisbio 62IPAPEC). Human Embryonic Kidney (HEK) 293 cells were transiently transfected in suspension with the AGTR1 vector (Origene RC212008) alone or co-transfected with the CXCR2 vector (Origene Cat RC207794) using FuGene™ HD reagent (Promega E2311). […] Agonists were prepared in a threefold serial dilution in stimulation buffer+0.1% BSA and added to the assay to give the appropriate final concentration-response curves, and co-stimulation at a single concentration as required. An IP1 standard curve was also constructed in 14 μl Stimulation Buffer+0.1% BSA. Incubations were conducted for 90 min at 37° C., 5% CO2, after which 3 μl IP1-d2 Reagent and 3 μl IP1 Tb Cryptate Antibody (Cisbio 62IPAPEC), in Lysis & Detection buffer, were added to each well for 60 min at room temperature. Plates were read on a HTRF® compatible reader (PHERAstar™, BMG Labtech), using 337 nm excitation and collecting donor/acceptor emission at 620 nm and 665 nm. A standard curve was plotted to interpolate unknown HTRF ratio (665/620×10 000) measurements as IP1 concentration (nM). […]

CXCR2 = biological target: T2, CXCR2 (Homo sapiens, UniProt P25025); assay: BRET trafficking of CXCR2/Rluc8 to Venus/Kras or Venus/Rab markers, absence of AT1R; type: cell-based; conditions: 100 nM CXCL8, 1 μM AngII
T2 sequence (P25025 1-360): T1 sequence (P25025 1-360)
Method: HEK293FT cells were seeded in 6-well plates at a density of approximately 700,000 cells/well and maintained at 37° C., 5% CO2 in Complete Media (DMEM containing 0.3 mg/ml glutamine, 100 IU/ml penicillin and 100 μg/ml streptomycin (Gibco/Thermo Fisher)) supplemented with 10% fetal calf serum (FCS; Bovogen). Transient transfections were carried out 24 h after seeding using FuGene6™ (Promega) according to manufacturer instructions. 24 h post-transfection, cells were washed with PBS, detached using 0.05% trypsin/0.53 mM EDTA, resuspended in HEPES-buffered phenol red free Complete Media containing 5% FCS and added to a poly-L-lysine-coated white 96-well microplate (Greiner Bio-One). 48 h post-transfection, bioluminescence resonance energy transfer (BRET) assays were carried out following pre-incubation of cells with EnduRen™ (Promega) at a final concentration of 30 μM, at 37° C., 5% CO2 for 2 h. BRET measurements were taken at 37° C. using the LUMlstar™ or CLARIOstar™ (BMG Labtech). Filtered light emissions were measured for 1 s in each of the ‘donor wavelength window’ (460-490 nm for LUMlstar™ or 410-490 nm for CLARIOstar™) and ‘acceptor wavelength window’ (520-550 nm for LUMlstar™ or 520-620 nm for CLARIOstar™).
The BRET signal observed between interacting proteins is normalized by subtracting the background BRET ratio. This can be done in one of two ways (see Pfleger et al. (2006) Cell Signal 18:1664-1670; Pfleger et al. (2006) Nat Protoc 1:336-344): 1) the ratio of the 520-550 nm or 520-620 nm emission over the 460-490 nm or 410-490 nm emission for a cell sample containing only the donor construct is subtracted from the same ratio for a sample containing the interacting acceptor and donor fusion proteins; 2) the ratio of the 520-550 nm or 520-620 nm emission over the 460-490 nm or 410-490 nm emission for a cell sample treated with vehicle is subtracted from the same ratio for a second aliquot of the same cell sample treated with ligand. In the following examples, the second calculation will be used and the signal is described as ligand-induced BRET′. Furthermore, for data shown in FIGS. 4 to 20, all data points in a given set are corrected relative to the final data point prior to agonist treatment, which is fixed to zero. In keys on FIGS. 7 to 20, “>” means “followed by after 50 minutes”, with agonists added at time zero on the x-axes.
Referring now to FIG. 3 (published in Tiulpakov et al (2016) Mol. Endocrinol. 30, 889-904), the proximity of Rluc8-tagged receptors to Venus-tagged Kras plasma membrane marker, or Venus-tagged Rabs specific for distinct subcellular locations, is monitored in live cells and in real-time using BRET. The Rab markers are: Venus/Rab5 (5) for early endosomes; Venus/Rab4 (4) for early endosome recycling; Venus/Rab11a (11) for recycling endosomes; Venus/Rab7 (7) for late endosomes/lysosomes; Venus/Rab9 (9) for late endosome trafficking to the trans-Golgi network; Venus/Rab1 (1) for endoplasmic reticulum trafficking to the cis-Golgi; Venus/Rab6 (6) for Golgi apparatus and trans-Golgi network; or Venus/Rab8 (8) for trans-Golgi network to plasma membrane.

With Angiotensin II [AngII] the “Rmax, IP1 accumulation” value (AT1R and CXCR2) was 567 nM, the “proximity of CXCR2/Rluc8 to Venus/Rab6 (BRET)” value (CXCR2; Golgi apparatus to trans-Golgi network, FIG. 4I) was “no effect” and the “proximity of CXCR2/Rluc8 to Venus/Rab4 (BRET)” value (CXCR2; early endosome recycling, FIG. 4E) was “no effect”. The “proximity of CXCR2/Rluc8 to Venus/Rab5 (BRET)” value (CXCR2; early endosomes, FIG. 4G) was “no effect”, the “proximity of CXCR2/Rluc8 to Venus/Rab1 (BRET)” value (CXCR2; endoplasmic reticulum to cis-Golgi, FIG. 4C) was “no effect” and the “proximity of CXCR2/Rluc8 to Venus/Rab9 (BRET)” value (CXCR2; late endosome to trans-Golgi network, FIG. 4O) was “no effect”. The “proximity of CXCR2/Rluc8 to Venus/Rab7 (BRET)” value (CXCR2; late endosomes/lysosomes, FIG. 4K) was “no effect”, the “proximity of CXCR2/Rluc8 to Venus/Kras (BRET)” value (CXCR2; plasma membrane marker, FIG. 4A) was “no effect” and the “proximity of CXCR2/Rluc8 to Venus/Rab11a (BRET)” value (CXCR2; recycling endosomes, FIG. 4Q) was “no effect”. For the same substance, the “proximity of CXCR2/Rluc8 to Venus/Rab8 (BRET)” value (CXCR2; trans-Golgi network to plasma membrane, FIG. 4M) was “no effect”.
